# Earlier results in patent publication US11718578B2, “Ketamine flow synthesis” (Université de Liège, priority 2017, dated 2023).
# Biological target: glutamatergic N-methyl-D-aspartate (NMDA) receptor
# Details: non-competitive NMDA receptor antagonist; according to Tyler et al.
smiles,measurement,value
"CN[C@]1(c2ccccc2Cl)CCCCC1=O [1a, (S)-2-(2-chlorophenyl)-2-(methylamino)-cyclohexanone]",IC50,465 nM
